Results: US4738971A, “N-aryl-1,2-dihydro-4-substituted-1-alkyl-2-oxo-quinoline-3-carboxamides” (priority 1981, dated 1988)

Tests used:
[1] = test system: carrageenan-induced edema; experiment: carrageenan edema test in rats; format: in vivo, rat (female Sprague-Dawley); conditions: dose within the range 10-160 mg/kg p.o.
How it was run: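 Female Sprague-Dawley rats (110-120 g, ≥10 per group) received compound intragastrically in aqueous methocel 30 min before plantar carrageenan injection into the right hind paw. At 3 h, right minus left paw weight gave edema weight, expressed as percent of methocel controls.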

[2] = test system: delayed hypersensitivity reaction (adjuvant arthritis, Mycobacterium butyricum); experiment: adjuvant arthritis test in rats; format: in vivo, rat (male Lister hooded); conditions: for significant potentiating effect in the adjuvant arthritis test: 40 mg/kg p.o.
Excerpt: (§1) The adjuvant arthritis test in rats produces a measureable extent of a delayed hypersensitivity reaction and can be used for a determination of variations in the extent of the delayed hypersensitivity reaction upon drug administration to the host. An increase in the extent of the delayed hypersensitivity reaction upon drug administration consequently indicates enhanced cell-mediated immunity in the host.
This example illustrates the effect of the compounds of the general formula I in the adjuvant arthritis test in rats.
as §1, with “produces” for “produces a measureable extent of”, “variations” for “variations in the extent”
A modification of a method described in (12) was used. Male Lister hooded rats weighing 250-275 g were used. At least 9 animals were used in each experimental group.
A single intradermal injection of 0.5 mg/0.1 ml heat killed Mycobacterium butyricum suspended in sterile liquid paraffinum was given into the right hind foot of all rats. After this injection, day 0, the volume of the left hind paw, measured by water displacement, was followed to the end of the experiment.
The substances suspended in aqueous methocel solution 10 ml/kg were given intragastrically. The control group was given methocel solution 10 ml/kg. The different groups of animals were thus treated once daily from day -4 to day 14. The effect of the substances was assessed by the left foot volume expressed in percent after comparison with the control groups.

[3] = test system: delayed hypersensitivity reaction (pertussis vaccine pleurisy); experiment: pertussis vaccine pleurisy test in rats; format: in vivo, rat (male Sprague-Dawley); conditions: 10 mg/kg p.o.
How it was run: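 Male Sprague-Dawley rats (250-275 g, ≥10/group) sensitized day 0 with heat-killed B. pertussis in Freund's incomplete adjuvant into hind and forepaw, challenged intrapleurally day 12. Compounds in aqueous methocel given intragastrically once daily days 10-13. Pleural exudate volume measured day 14, expressed as percent of methocel control.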

mice = mice p.o.; reference 13; cited from earlier work

Row | Structure (SMILES) | significant potentiation of the carrageenan edema [1] | significant potentiating effect in the adjuvant arthritis test [2] | significant enhancing effect in the pertussis vaccine pleurisy test [3] | change in vivo at 5 mg/kg ([2]; Rattus norvegicus, po, 336 h, 5 mg/kg p.o., once daily day -4 to day 14, vs control, preliminary, read-out: Increase of the volume of the left foot) | change in vivo at 10 mg/kg ([2]; Rattus norvegicus, po, 336 h, 10 mg/kg p.o., once daily day -4 to day 14, vs control, preliminary, read-out: Increase of the volume of the left foot) | change in vivo at 10 mg/kg ([3]; Rattus norvegicus, po, 48 h, once daily day 10 to day 13, vs control, preliminary, read-out: Enhancement of the delayed hypersensitivity reaction assessed by the exudate vol.) | acute LD50 (mice)
1 | COc1ccc(N(C)C(=O)c2c(O)c3cc(OC)ccc3n(C)c2=O)cc1 [21:14, N-(4-methoxyphenyl)-N-methyl-1,2-dihydro-4-hydroxy-6-methoxy-1-methyl-2-oxo-quinoline-3-carboxamide] | potentiate significantly | significant potentiating effect | significant enhancing effect |  |  |  | 
2 | CN(C(=O)c1c(O)c2ccccc2n(C)c1=O)c1ccc(F)cc1 [21:35, N-(4-fluorophenyl)-N-methyl-1,2-dihydro-4-hydroxy-1-methyl-2-oxo-quinoline-3-carboxamide] | potentiate significantly | significant potentiating effect | significant enhancing effect |  |  |  | 
3 | c1ccc([C@H]2CN3CCSC3=N2)cc1 [Levamisole, levamisole, reference compound] |  |  |  | 4% | 12% | 13% | 285 mg/kg
